How the values were obtained:
Conditions in all cases: 72 h
[1] = tested on: Caco-2; test: cell viability relative to DMSO; higher = less toxic
[2] = tested on: Calu-3; test: as above
[3] = tested on: HepG2; test: as above
[4] = tested on: U2OS; test: as above
[5] = tested on: Vero E6; test: as above
[6] = tested on: Caco-2; test: relative viability EC50 (midpoint between 100% and the lowest measured viability); higher = less toxic
[7] = tested on: Calu-3; test: as above
[8] = tested on: HepG2; test: as above
[9] = tested on: U2OS; test: as above
[10] = tested on: Vero E6; test: as above
[11] = tested on: Caco-2; test: drug sensitivity score (DSS) for viability; higher = more toxic; extreme values may be limits of the assay
[12] = tested on: Calu-3; test: as above
[13] = tested on: HepG2; test: as above
[14] = tested on: U2OS; test: as above
[15] = tested on: Vero E6; test: as above

| SMILES | cell viability ([1]; 1 nM) [%] | cell viability ([1]; 10 nM) [%] | cell viability ([1]; 100 nM) [%] | cell viability ([1]; 1000 nM) [%] | cell viability ([1]; 10000 nM) [%] | cell viability ([2]; 1 nM) [%] | cell viability ([2]; 10 nM) [%] | cell viability ([2]; 100 nM) [%] | cell viability ([2]; 1000 nM) [%] | cell viability ([2]; 10000 nM) [%] | cell viability ([3]; 1 nM) [%] | cell viability ([3]; 10 nM) [%] | cell viability ([3]; 100 nM) [%] | cell viability ([3]; 1000 nM) [%] | cell viability ([3]; 10000 nM) [%] | cell viability ([4]; 1 nM) [%] | cell viability ([4]; 10 nM) [%] | cell viability ([4]; 100 nM) [%] | cell viability ([4]; 1000 nM) [%] | cell viability ([4]; 10000 nM) [%] | cell viability ([5]; 1 nM) [%] | cell viability ([5]; 10 nM) [%] | cell viability ([5]; 100 nM) [%] | cell viability ([5]; 1000 nM) [%] | cell viability ([5]; 10000 nM) [%] | relative viability EC50 [6] [µM] | relative viability EC50 [7] [µM] | relative viability EC50 [8] [µM] | relative viability EC50 [9] [µM] | relative viability EC50 [10] [µM] | drug sensitivity score [11] | drug sensitivity score [12] | drug sensitivity score [13] | drug sensitivity score [14] | drug sensitivity score [15] |
| --- | --- | --- | --- | --- | --- | --- | --- | --- | --- | --- | --- | --- | --- | --- | --- | --- | --- | --- | --- | --- | --- | --- | --- | --- | --- | --- | --- | --- | --- | --- | --- | --- | --- | --- | --- |
| NC(=O)N1c2ccccc2CC(O)c2ccccc21 (centres undefined) [licarbazepine] | 98.3 | 99.5 | 97.8 | 100 | 91.5 | 98.3 | 99.9 | 96.3 | 105 | 92.1 | 96.3 | 96.4 | 93.5 | 108 | 99 | 108 | 97.5 | 98.8 | 101 | 102 | 101 | 102 | 104 | 97.6 | 97.8 | > 10 | > 10 | > 10 | > 10 | > 10 | 0 | 0 | 0 | 0 | 0 |
| Nc1nc(=O)[nH]cc1F [flucytosine] | 97.6 | 94 | 100 | 96.5 | 92.9 | 87.6 | 102 | 99.9 | 91.1 | 111 | 101 | 110 | 97.6 | 109 | 110 | 98.6 | 99.2 | 102 | 97.9 | 104 |  |  |  |  |  | > 10 | > 10 | > 10 | > 10 |  | 0 | 0 | 0 | 0 |  |
| O=C(O)C1=CCCN(CCOC(c2ccc(C(F)(F)F)cc2)c2ccc(C(F)(F)F)cc2)C1 [CI-966] | 101 | 101 | 105 | 100 | 90.4 | 97.6 | 101 | 102 | 98.5 | 96.4 | 98.7 | 99.3 | 104 | 95.5 | 109 | 101 | 107 | 106 | 98.7 | 98 | 98.2 | 99.4 | 101 | 97.8 | 99.4 | > 10 | > 10 | > 10 | > 10 | > 10 | 0 | 0 | 0 | 0 | 0 |
| CCCC[C@H](NC(C)=O)C(=O)N[C@H]1CC(=O)NCCCC[C@@H](C(=O)O)NC(=O)[C@H](Cc2c[nH]c3ccccc23)NC(=O)[C@H](CCCNC(=N)N)NC(=O)[C@@H](Cc2ccccc2)NC(=O)[C@H](Cc2c[nH]cn2)NC1=O [bremelanotide] | 114 | 94.4 | 85.7 | 90.8 | 117 | 99.1 | 104 | 90.8 | 100 | 96.2 | 115 | 118 | 95.7 | 102 | 98.9 | 99.9 | 102 | 95 | 104 | 101 | 100 | 102 | 108 | 99.3 | 107 | > 10 | > 10 | > 10 | > 10 | > 10 | 0 | 0 | 0 | 0 | 0 |
| CN[C@@H](C)C(=O)N[C@H](C(=O)N1CCC[C@H]1C(=O)Nc1snnc1-c1ccccc1)C1CCCCC1 [GDC-0152] | 98.4 | 104 | 98.9 | 102 | 92.2 | 104 | 106 | 97.4 | 87.9 | 84.9 | 105 | 105 | 99.6 | 97.4 | 96 | 98.1 | 109 | 95.7 | 100 | 94.3 | 97 | 98.9 | 102 | 103 | 106 | > 10 | > 10 | > 10 | > 10 | > 10 | 0 | 1.1 | 0 | 0 | 0 |
| O=C[C@H](O)[C@@H](O)[C@H](O)CO [xylose] | 94 | 94.3 | 94.2 | 90.4 | 92.7 | 104 | 93 | 98.4 | 97.9 | 85.4 | 106 | 101 | 101 | 98 | 96.8 | 95.1 | 95.3 | 94.5 | 96.4 | 96.3 | 96.7 | 96.1 | 99.4 | 94.3 | 92.6 | > 10 | > 10 | > 10 | > 10 | > 10 | 0 | 0.3 | 0 | 0 | 0 |
| c1cc(OCCN2CCCCC2)cc(-c2n[nH]c3ccc(-c4nnc[nH]4)cc23)c1 [CC-401] | 101 | 95.7 | 95.5 | 97.3 | 106 | 104 | 89.2 | 96 | 95.2 | 122 | 94.5 | 96.7 | 88.4 | 90.7 | 61.5 | 101 | 96.4 | 100 | 94.1 | 93.4 | 101 | 98 | 101 | 103 | 95.2 | > 10 | > 10 |  | > 10 | > 10 | 0 | 0 | 2.9 | 0 | 0 |
| CS(=O)(=O)c1ccc([C@@H](O)[C@@H](CO)NC(=O)C(Cl)Cl)cc1 [thiamphenicol] | 99.7 | 89.8 | 91.7 | 93.4 | 94.4 | 106 | 94.5 | 102 | 89.7 | 97.8 | 101 | 110 | 93.4 | 101 | 67.3 | 99.5 | 97.5 | 105 | 96.6 | 99 | 95.8 | 99.3 | 92.3 | 96.8 | 98.1 | > 10 | > 10 |  | > 10 | > 10 | 0 | 0 | 1.4 | 0 | 0 |
| CCc1nc(N)nc(N)c1-c1ccc(Cl)cc1 [pyrimethamine] |  |  |  |  |  | 101 | 111 | 101 | 99 | 107 | 108 | 91.5 | 102 | 93.2 | 77.9 | 100 | 108 | 99.8 | 102 | 96.8 | 96.3 | 93 | 103 | 99.9 | 60.7 |  | > 10 | > 10 | > 10 |  |  | 0 | 1.6 | 0 | 2 |
| Nc1cc(Cl)c(N=C2NCCN2)c(Cl)c1 [apraclonidine] | 104 | 92.7 | 110 | 111 | 96.6 | 93.6 | 100 | 106 | 106 | 98.2 | 96.5 | 96.7 | 105 | 92.3 | 96.5 | 96.4 | 101 | 94.8 | 101 | 102 | 108 | 89.1 | 101 | 95.2 | 98.6 | > 10 | > 10 | > 10 | > 10 | > 10 | 0 | 0 | 0 | 0 | 0 |
| CC(C)(C)c1cc(NC(=O)Nc2ccc(-c3cn4c(n3)sc3cc(OCCN5CCOCC5)ccc34)cc2)no1 [quizartinib] | 103 | 105 | 103 | 90.9 | 86.5 | 104 | 97.3 | 96.6 | 93.4 | 96.1 | 85.7 | 97.5 | 90.9 | 89 | 93.3 | 101 | 97.4 | 103 | 93.6 | 103 | 99.1 | 100 | 98.8 | 104 | 99.8 | > 10 | > 10 | > 10 | > 10 | > 10 | 0.6 | 0 | 0 | 0 | 0 |
| CCCC(=O)OCOC(=O)C1=C(C)NC(C)=C(C(=O)OC)C1c1cccc(Cl)c1Cl (centres undefined) [cleviprex] | 97.6 | 109 | 99.1 | 102 | 87 | 101 | 92 | 105 | 108 | 118 | 97.9 | 97.8 | 110 | 111 | 99.8 | 98.8 | 104 | 100 | 107 | 95.3 |  |  |  |  |  | > 10 | > 10 | > 10 | > 10 |  | 0.1 | 0 | 0 | 0 |  |
| COc1oc(=O)c2cc(N)ccc2c1Cl [JLK-6] | 99.2 | 94.6 | 96.1 | 95.4 | 76.6 | 103 | 105 | 106 | 94.9 | 80.9 | 96.6 | 113 | 103 | 105 | 73.1 | 99.7 | 98.2 | 99.1 | 99.4 | 91.7 | 108 | 104 | 100 | 104 | 93.8 | > 10 | > 10 |  | > 10 | > 10 | 1.5 | 1.1 | 0.8 | 0 | 0 |
| CN(C)CCCNC(=O)c1ccc(-c2cc(O)c3ncccc3c2)cc1 [ML324] | 107 | 94.3 | 107 | 91.7 | 80.6 | 105 | 93.8 | 106 | 94.1 | 83.4 | 88.7 | 103 | 88.2 | 104 | 35.7 | 105 | 98.9 | 107 | 98.5 | 85 | 98.5 | 100 | 96.2 | 101 | 58.1 | > 10 | > 10 | 3.52 | > 10 |  | 1.4 | 0.9 | 3.2 | 0.4 | 2 |
